Measured values reported in PMC8065421, “Repurposing Drugs for Mayaro Virus: Identification of EIDD-1931, Favipiravir and Suramin as Mayaro Virus Inhibitors” (Microorganisms, 2021).
Where two headings read alike, the source gives them in different places.

Columns and labels:
CHIKV = settings: against CHIKV; cited from earlier work
[1] = Cytotoxicity assay on uninfected cells; settings: African green monkey
MAYV [2] = assay: Antiviral CPE reduction assay; assay type: cell-based, Mayaro virus (MAYV) strain TC625; settings: for Activity against MAYV (inhibition of MAYV-induced CPE): MOI 0.01
in vitro = settings: African green monkey
MAYV [3] = assay: Delay of treatment assay; assay type: cell-based, Mayaro virus (MAYV) strain TC625; settings: for reduction of intracellular RNA by time of addition: EIDD-1931 25 µM, favipiravir 300 µM, suramin 500 µM, qRT-PCR
MAYV [4] = assay type: cell-based, Mayaro virus (MAYV) strain TC625; settings: for decrease in relative infectivity (ratio infectious virus vs. viral RNA): supernatant
Vero cells = assay: Cytotoxicity assay on uninfected cells
MAYV [5] = settings: virus yield assay, cited from earlier work

| Structure (SMILES) | CC50 at 3 days [1] [µM] | EC50 (MAYV [2]; Mayaro virus, Vero, 72 h) [µM] | Activity against MAYV (inhibition of MAYV-induced CPE) (MAYV [2]; Vero cells) | reduction of intracellular RNA by time of addition (MAYV [3]; […], 10 h pi) | decrease in infectious virus (MAYV [4]) | reduction in viral RNA and infectious virus content with increasing concentrations (MAYV [4]) | further results |
| --- | --- | --- | --- | --- | --- | --- | --- |
| CCOC(=O)c1c(CSc2ccccc2)n(C)c2cc(Br)c(O)c(CN(C)C)c12 [Arbidol] | > 100 | > 60 | did not show activity against MAYV |  |  |  | EC50 (CHIKV): 12 µM |
| CCC(CC)COC(=O)[C@H](C)N[P@](=O)(OC[C@H]1O[C@@](C#N)(c2ccc3c(N)ncnn23)[C@H](O)[C@@H]1O)Oc1ccccc1 [Remdesivir] |  | > 100 | not able to inhibit MAYV |  |  |  | CC50 at 3 days (in vitro): 297 ± 101 µM |
| NC(=O)c1nc(F)c[nH]c1=O [Favipiravir] | 2840 ± 86 | 79 ± 4 |  | only when added at early time points (2 h prior to infection and 0 h pi) | ~ 8 log10 | dose-dependent reduction | reduction of viral titers (MAYV [3]; 300 µM, added until 2 h pi, […], 10 h pi): 2–3 log10; inhibitory effect in virus yield assay (MAYV [4]; 75 µM): inhibitory effect was still observed; decrease in relative infectivity (ratio infectious virus vs. viral RNA) (MAYV [4]; starting from 75 µM): ~ 100 fold |
| Nc1ncnc2c([C@@H]3N[C@H](CO)[C@@H](O)[C@H]3O)c[nH]c12 [Galidesivir] | 238 ± 36 | > 100 | not able to inhibit MAYV |  |  |  |  |
| C[C@@]1(O)[C@H](O)[C@@H](CO)O[C@H]1n1ccc2c(N)ncnc21 [7DMA, 7-Deaza-2′-C-methyladenosine] | > 600 | > 60 | not able to inhibit MAYV |  |  |  |  |
| C[C@@]1(O)[C@H](O)[C@@H](CO)O[C@H]1n1ccc(N)nc1=O [2’CMC, 2′-C-methylcytidine] | 167 ± 7 | > 20 | not able to inhibit MAYV |  |  |  |  |
| Cc1ccc(C(=O)Nc2ccc(S(=O)(=O)O)c3cc(S(=O)(=O)O)cc(S(=O)(=O)O)c23)cc1NC(=O)c1cccc(NC(=O)Nc2cccc(C(=O)Nc3cc(C(=O)Nc4ccc(S(=O)(=O)O)c5cc(S(=O)(=O)O)cc(S(=O)(=O)O)c45)ccc3C)c2)c1 [Suramin] |  | 124 ± 26 |  | only when added at early time points (2 h prior to infection and 0 h pi) | ~ 5 log10 | dose-dependent reduction | CC50 at 3 days (in vitro): > 2000 µM; decrease of infectious virus titers (MAYV [3]): ~ −2 log10; relative infectivity of MAYV (MAYV [4]; all concentrations with the exception of the highest tested (500 µM)): not affected |
| CCN(CC)CCCC(C)Nc1ccnc2cc(Cl)ccc12 (centres unmarked) [Chloroquine] |  | > 200 | did not show activity against MAYV |  |  |  | EC50 (CHIKV): ~10 µM |
| O=c1nc(NO)ccn1[C@@H]1O[C@H](CO)[C@@H](O)[C@H]1O [EIDD-1931, β-D-N^4-hydroxycytidine] |  |  |  | still resulted in a reduction when added until 2 h pi | ~ 8 log10 | dose-dependent reduction | CC50 (Vero cells; uninfected Vero cells, day 3, microscopically or MTS/PMS): > 100 µM; activity on infectious virus (MAYV [3]; 25 µM, added at 6 h pi): modest activity; decrease in infectious virus (MAYV [3]; 25 µM, added until 4 h pi, […], 10 h pi): 2–3 log10; inhibitory effect in virus yield assay (MAYV [4]; 3.1 µM): inhibitory effect was still observed; decrease in relative infectivity (ratio infectious virus vs. viral RNA) (MAYV [4]; starting from 6 µM): ~ 1000 fold; EC50 (MAYV [2]; Vero cells, MAYV MOI 0.01, day 3 pi, MTS/PMS read-out): 1.6 ± 0.5 µM |
| NC(=O)c1ncn([C@@H]2O[C@H](CO)[C@@H](O)[C@H]2O)n1 [Ribavirin, 1-(β-D-ribofuranosyl)-1H-1,2,4-triazole-3-carboxamide] | 250 ± 81 | > 200 | not active against MAYV |  |  |  | signs of toxicity determined microscopically (Vero cells; concentrations higher than 200 µM): signs of toxicity were determined microscopically at higher concentrations; blocking MAYV infectivity (MAYV [4]): not effective; EC50 (MAYV [5]; strain TR4675, MOI 0.05): 62.5 µM; EC50 (MAYV [5]; strain TR4675, MOI 0.1): 255 µM |
